This note sets out measurements from the RepoRT retention time repository.

This data set can be described thus: HILIC, Merck SeQuant ZIC-HILIC, 25 °C, 0.25 mL/min; A: water + 16 mM ammonium formate; B: acetonitrile + 0.1% formic acid, pH 3; gradient (min/%B) 0/97 2/97 10/70 15/10 17/10 18/97 25/97. The following applies: stereoisomer not certain.
Take `CC(CCC(=O)O)C1CCC2C3C(O)CC4CC(O)CCC4(C)C3CC(O)C12C` (configuration not stated) [CHOLATE]: the LC retention time worked out at 2.18 min.

Regarding `C[N+](C)(C)CCOP(=O)(O)OP(=O)([O-])OCC1OC(n2ccc(N)nc2=O)C(O)C1O` (configuration not stated) [CITICOLINE], the LC retention time stood at 15.7 min.

In the case of `CC(O)(CC(=O)O)C(=O)O` (configuration not stated) [CITRAMALATE], the LC retention time came to 6.53 min.

With `O=C(O)CC(O)(CC(=O)O)C(=O)O` [CITRATE], the LC retention time stood at 13 min.

Turning to `NC(=O)NCCCC(N)C(=O)O` (configuration not stated) [CITRULLINE], the LC retention time came to 14.5 min.

For `CC(C)(COP(=O)(O)OP(=O)(O)OCC1OC(n2cnc3c(N)ncnc32)C(O)C1OP(=O)(O)O)C(O)C(=O)NCCC(=O)NCCS` (configuration not stated) [COENZYME A], the LC retention time was found to be 14.3 min.

As to `CC12CCC(=O)C=C1CCC1C2CCC2(C)C1CCC2(O)C(=O)CO` (configuration not stated) [CORTEXOLONE], the LC retention time was found to be 1.71 min.

On to `CC12CCC(=O)C=C1CCC1C2C(O)CC2(C)C(C(=O)CO)CCC12` (configuration not stated) [CORTICOSTERONE], for which the LC retention time was found to be 1.74 min.

For `CC12CCC(=O)C=C1CCC1C2C(O)CC2(C)C1CCC2(O)C(=O)CO` (configuration not stated) [CORTISOL], the LC retention time was determined as 1.89 min.

For `CC12CCC(=O)C=C1CCC1C2C(=O)CC2(C)C1CCC2(O)C(=O)CO` (configuration not stated) [CORTISONE], the LC retention time was 1.8 min.

As for `CN(CC(=O)O)C(=N)N` [CREATINE], the LC retention time is 13.9 min.

Take `CN1CC(=O)NC1=N` [CREATININE]: the LC retention time was determined as 11.7 min.

Regarding `Nc1nc2c(ncn2C2OC3COP(=O)(O)OC3C2O)c(=O)[nH]1` (configuration not stated) [CYCLIC GMP], the LC retention time stood at 13.4 min.

For `NC(CS)C(=O)NCC(=O)O` (configuration not stated) [CYS-GLY_2M], the LC retention time amounted to 16.3 min.

Turning to `NC(CCSCC(N)C(=O)O)C(=O)O` (configuration not stated) [CYSTATHIONINE], the LC retention time stood at 15.4 min.

For the molecule `NCCS` [CYSTEAMINE], the LC retention time came out at 16.9 min.

Regarding `NC(CSSCC(N)C(=O)O)C(=O)O` (configuration not stated) [CYSTINE], the LC retention time is 15.4 min.

Consider `Nc1ccn(C2OC(CO)C3OP(=O)(O)OC32)c(=O)n1` (configuration not stated) [CYTIDINE 2'-3'-CYCLIC PHOSPHATE], for which the LC retention time was 13.6 min.

Take `Nc1ccn(C2OC(COP(=O)(O)OP(=O)(O)O)C(O)C2O)c(=O)n1` (configuration not stated) [CYTIDINE DIPHOSPHATE]: the LC retention time is 15.4 min.

Consider `Nc1ccn(C2OC(COP(=O)(O)OP(=O)(O)OP(=O)(O)O)C(O)C2O)c(=O)n1` (configuration not stated) [CYTIDINE TRIPHOSPHATE], for which the LC retention time stood at 15.9 min.

As for `Nc1ccnc(=O)[nH]1` [CYTOSINE], the LC retention time was 12 min.

Turning to `CN1C(=O)CCC1c1cccnc1` (configuration not stated) [Cotinine], the LC retention time worked out at 2.21 min.

As for `O=C[C@H](O)[C@H](O)CO` [D-(-)-Erythrose], the LC retention time amounted to 8.22 min.

Turning to `O=CC(O)C1OC(=O)C(O)C1O` [D-GLUCURONOLACTONE], the LC retention time amounted to 8.75 min.

Regarding `Nc1ncnc2c1ncn2C1CC(O)C(COP(=O)(O)O)O1` (configuration not stated) [DEOXYADENOSINE MONOPHOSPHATE], the LC retention time was 13.3 min.

For `Nc1ncnc2c1ncn2C1CC(O)C(COP(=O)(O)OP(=O)(O)OP(=O)(O)O)O1` (configuration not stated) [DEOXYADENOSINE TRIPHOSPHATE], the LC retention time was 15.7 min.

As for `Nc1ccn(C2CC(O)C(COP(=O)(O)O)O2)c(=O)n1` (configuration not stated) [DEOXYCYTIDINE MONOPHOSPHATE], the LC retention time amounted to 14.5 min.

Take `Nc1ccn(C2CC(O)C(COP(=O)([O-])OP(=O)([O-])[O-])O2)c(=O)n1` (configuration not stated) [DEOXYCYTIDINE-DIPHOSPHATE]: the LC retention time is 15.2 min.

Turning to `O=c1ccn(C2CC(O)C(COP(=O)(O)O)O2)c(=O)[nH]1` (configuration not stated) [DEOXYURIDINE-MONOPHOSPHATE], the LC retention time was found to be 13.4 min.

Take `O=c1ccn(C2CC(O)C(CO)O2)c(=O)[nH]1` (configuration not stated) [DEOXYURIDINE]: the LC retention time came to 2.45 min.

Regarding `CC1NC(=O)NC1CCCCCC(=O)O` (configuration not stated) [DETHIOBIOTIN], the LC retention time was 2.13 min.

For `Nc1nc2c(ncn2C2CC(O)C(COP(=O)(O)OP(=O)(O)O)O2)c(=O)[nH]1` (configuration not stated) [DGDP], the LC retention time was found to be 15.2 min.
